Test system: 874868-142-R-J2-PDC complex spheroids, growth % test/control
Test: Anticancer human tumor 874868-142-R-J2-PDC patient-derived head and neck squamous carcinoma cell line growth inhibition [CLK]
Settings: for IC50: curve of first compound; for viability, T/C: stronger effect = lower value
How it was run: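 Multi-cell-type spheroids combined patient-derived tumor cells with HUVEC endothelial cells and human mesenchymal stem cells. Paired agents were dosed in half-log steps down from about clinical Cmax, or from 10 microM where Cmax was unknown.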

[1] = second compound 0.0316 µM, first compound 0.0316 µM
[2] = second compound 0.0316 µM, first compound 0.1 µM
[3] = second compound 0.0316 µM, first compound 0.316 µM
[4] = second compound 0.0316 µM, first compound 1 µM
[5] = second compound 0.1 µM, first compound 0.0316 µM
[6] = second compound 0.1 µM, first compound 0.1 µM
[7] = second compound 0.1 µM, first compound 0.316 µM
[8] = second compound 0.1 µM, first compound 1 µM
[9] = second compound 0.316 µM, first compound 0.0316 µM
[10] = second compound 0.316 µM, first compound 0.1 µM
[11] = second compound 0.316 µM, first compound 0.316 µM
[12] = second compound 0.316 µM, first compound 1 µM
[13] = second compound 1 µM, first compound 0.0316 µM
[14] = second compound 1 µM, first compound 0.1 µM
[15] = second compound 1 µM, first compound 0.316 µM
[16] = second compound 1 µM, first compound 1 µM
[17] = second compound 3.16 µM, first compound 0.0316 µM
[18] = second compound 3.16 µM, first compound 0.1 µM
[19] = second compound 3.16 µM, first compound 0.316 µM
[20] = second compound 3.16 µM, first compound 1 µM
[21] = second compound 10 µM, first compound 0.0316 µM
[22] = second compound 10 µM, first compound 0.1 µM
[23] = second compound 10 µM, first compound 0.316 µM
[24] = second compound 10 µM, first compound 1 µM
[25] = second compound 0.0316 µM, first compound 3.16 µM
[26] = second compound 0.0316 µM, first compound 10 µM
[27] = second compound 0.1 µM, first compound 3.16 µM
[28] = second compound 0.1 µM, first compound 10 µM
[29] = second compound 0.316 µM, first compound 3.16 µM
[30] = second compound 0.316 µM, first compound 10 µM
[31] = second compound 1 µM, first compound 3.16 µM
[32] = second compound 1 µM, first compound 10 µM
[33] = second compound 3.16 µM, first compound 3.16 µM
[34] = second compound 3.16 µM, first compound 10 µM
[35] = second compound 10 µM, first compound 3.16 µM
[36] = second compound 10 µM, first compound 10 µM
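Note: spheroids exposed to the compounds for 7 days.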
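Throughout, for viability, T/C: 100% = DMSO vehicle control viability.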

Q: How did the IC50 (second compound 0.0316 µM) turn out when `CCc1c2c(nc3ccc(O)cc13)-c1cc3c(c(=O)n1C2)COC(=O)[C@]3(O)CC` + CNC(=O)c1ccc(Nc2nc(OC3CCCC3)c3c(-c4ccc5nc(C)oc5c4)c[nH]c3n2)c(OC)c1 was run?
A: Its IC50 is 11.8 nM.

Q: What about the IC50 (second compound 0.1 µM) of the same compound?
A: The IC50 was 3.98 nM.

Q: And the IC50 (second compound 0.316 µM)?
A: Its IC50 is under 3.16 nM.

Q: And the IC50 (second compound 1 µM)?
A: Its IC50 is under 3.16 nM.

Q: What about the IC50 (second compound 3.16 µM) of the same compound?
A: The IC50 was under 3.16 nM.

Q: And the IC50 (second compound 10 µM)?
A: The IC50 was under 3.16 nM.

Q: And the viability, T/C (second compound 0.0316 µM, first compound 0.00316 µM)?
A: Its viability, T/C is 63.6%.

Q: And the viability, T/C (second compound 0.0316 µM, first compound 0.01 µM)?
A: The viability, T/C was 44%.

Q: What about the viability, T/C [1] of the same compound?
A: Its viability, T/C is 47.1%.

Q: And the viability, T/C [2]?
A: The viability, T/C was 28%.

Q: And the viability, T/C [3]?
A: The viability, T/C was 11.6%.

Q: What about the viability, T/C [4] of the same compound?
A: Its viability, T/C is 2.44%.

Q: And the viability, T/C (second compound 0.1 µM, first compound 0.00316 µM)?
A: Its viability, T/C is 50.4%.

Q: What about the viability, T/C (second compound 0.1 µM, first compound 0.01 µM) of the same compound?
A: The viability, T/C was 47.8%.

Q: And the viability, T/C [5]?
A: The viability, T/C was 35.7%.

Q: What about the viability, T/C [6] of the same compound?
A: Its viability, T/C is 28.2%.

Q: And the viability, T/C [7]?
A: The viability, T/C was 16.6%.

Q: And the viability, T/C [8]?
A: Its viability, T/C is 2.97%.

Q: And the viability, T/C (second compound 0.316 µM, first compound 0.00316 µM)?
A: Its viability, T/C is 42.9%.

Q: What about the viability, T/C (second compound 0.316 µM, first compound 0.01 µM) of the same compound?
A: The viability, T/C was 37.9%.

Q: What about the viability, T/C [9] of the same compound?
A: Its viability, T/C is 34.4%.

Q: And the viability, T/C [10]?
A: Its viability, T/C is 19.6%.

Q: And the viability, T/C [11]?
A: The viability, T/C was 11.3%.

Q: What about the viability, T/C [12] of the same compound?
A: The viability, T/C was 4.87%.

Q: What about the viability, T/C (second compound 1 µM, first compound 0.00316 µM) of the same compound?
A: Its viability, T/C is 31%.

Q: What about the viability, T/C (second compound 1 µM, first compound 0.01 µM) of the same compound?
A: Its viability, T/C is 26.8%.

Q: What about the viability, T/C [13] of the same compound?
A: The viability, T/C was 15.1%.

Q: And the viability, T/C [14]?
A: The viability, T/C was 11.6%.

Q: What about the viability, T/C [15] of the same compound?
A: The viability, T/C was 7.96%.

Q: And the viability, T/C [16]?
A: Its viability, T/C is 1.98%.

Q: What about the viability, T/C (second compound 3.16 µM, first compound 0.00316 µM) of the same compound?
A: Its viability, T/C is 24.7%.

Q: What about the viability, T/C (second compound 3.16 µM, first compound 0.01 µM) of the same compound?
A: Its viability, T/C is 20.7%.

Q: And the viability, T/C [17]?
A: Its viability, T/C is 15.3%.

Q: What about the viability, T/C [18] of the same compound?
A: Its viability, T/C is 12.4%.

Q: And the viability, T/C [19]?
A: The viability, T/C was 12.8%.

Q: What about the viability, T/C [20] of the same compound?
A: The viability, T/C was 4.03%.

Q: What about the viability, T/C (second compound 10 µM, first compound 0.00316 µM) of the same compound?
A: The viability, T/C was 28.8%.

Q: What about the viability, T/C (second compound 10 µM, first compound 0.01 µM) of the same compound?
A: The viability, T/C was 21.6%.

Q: What about the viability, T/C [21] of the same compound?
A: Its viability, T/C is 14%.

Q: And the viability, T/C [22]?
A: Its viability, T/C is 11.2%.

Q: And the viability, T/C [23]?
A: Its viability, T/C is 9.57%.

Q: What about the viability, T/C [24] of the same compound?
A: The viability, T/C was 9.34%.

Q: Which results are given for `Nc1ccn(C2OC(CO)C(O)C2(F)F)c(=O)n1` (stereo unspecified) + CNC(=O)c1ccc(Nc2nc(OC3CCCC3)c3c(-c4ccc5nc(C)oc5c4)c[nH]c3n2)c(OC)c1?
A: IC50 (second compound 0.0316 µM): 646 nM; IC50 (second compound 0.1 µM): 518 nM; IC50 (second compound 0.316 µM): 162 nM; IC50 (second compound 1 µM): < 31.6 nM; IC50 (second compound 3.16 µM): < 31.6 nM; IC50 (second compound 10 µM): < 31.6 nM; viability, T/C [1]: 108%; viability, T/C [2]: 80.2%; viability, T/C [3]: 56.3%; viability, T/C [4]: 46.7%; viability, T/C [25]: 41.6%; viability, T/C [26]: 43.5%; viability, T/C [5]: 80.6%; viability, T/C [6]: 97.9%; viability, T/C [7]: 57.8%; viability, T/C [8]: 42.3%; viability, T/C [27]: 42.9%; viability, T/C [28]: 33.8%; viability, T/C [9]: 56.4%; viability, T/C [10]: 53.7%; viability, T/C [11]: 48%; viability, T/C [12]: 35.3%; viability, T/C [29]: 35%; viability, T/C [30]: 22.3%; viability, T/C [13]: 42.9%; viability, T/C [14]: 37.5%; viability, T/C [15]: 33.6%; viability, T/C [16]: 23.1%; viability, T/C [31]: 26.2%; viability, T/C [32]: 18%; viability, T/C [17]: 40%; viability, T/C [18]: 42.1%; viability, T/C [19]: 30.3%; viability, T/C [20]: 23.8%; viability, T/C [33]: 22.7%; viability, T/C [34]: 16.5%; viability, T/C [21]: 39.2%; viability, T/C [22]: 36.8%; viability, T/C [23]: 33.7%; viability, T/C [24]: 25.5%; viability, T/C [35]: 19.4%; viability, T/C [36]: 23.1%

Q: How did the IC50 (second compound 0.0316 µM) turn out when `O=c1[nH]cc(F)c(=O)[nH]1` + CNC(=O)c1ccc(Nc2nc(OC3CCCC3)c3c(-c4ccc5nc(C)oc5c4)c[nH]c3n2)c(OC)c1 was run?
A: The IC50 was over 10000 nM.

Q: And the IC50 (second compound 0.1 µM)?
A: The IC50 was 2010 nM.

Q: And the IC50 (second compound 0.316 µM)?
A: The IC50 was 461 nM.

Q: What about the IC50 (second compound 1 µM) of the same compound?
A: Its IC50 is under 31.6 nM.

Q: What about the IC50 (second compound 3.16 µM) of the same compound?
A: The IC50 was under 31.6 nM.

Q: What about the IC50 (second compound 10 µM) of the same compound?
A: Its IC50 is under 31.6 nM.

Q: What about the viability, T/C [1] of the same compound?
A: Its viability, T/C is 81.8%.

Q: And the viability, T/C [2]?
A: Its viability, T/C is 86%.

Q: What about the viability, T/C [3] of the same compound?
A: Its viability, T/C is 71.7%.

Q: What about the viability, T/C [4] of the same compound?
A: The viability, T/C was 61.1%.

Q: What about the viability, T/C [25] of the same compound?
A: The viability, T/C was 54.7%.

Q: And the viability, T/C [26]?
A: Its viability, T/C is 50.7%.

Q: What about the viability, T/C [5] of the same compound?
A: Its viability, T/C is 74%.

Q: What about the viability, T/C [6] of the same compound?
A: Its viability, T/C is 68.9%.

Q: And the viability, T/C [7]?
A: Its viability, T/C is 75.8%.

Q: And the viability, T/C [8]?
A: Its viability, T/C is 56.4%.

Q: And the viability, T/C [27]?
A: The viability, T/C was 50.2%.

Q: What about the viability, T/C [28] of the same compound?
A: The viability, T/C was 41.5%.

Q: And the viability, T/C [9]?
A: Its viability, T/C is 54%.

Q: And the viability, T/C [10]?
A: The viability, T/C was 59.2%.

Q: What about the viability, T/C [11] of the same compound?
A: The viability, T/C was 55.9%.

Q: And the viability, T/C [12]?
A: The viability, T/C was 34.9%.

Q: And the viability, T/C [29]?
A: Its viability, T/C is 39.4%.

Q: What about the viability, T/C [30] of the same compound?
A: Its viability, T/C is 39.2%.

Q: What about the viability, T/C [13] of the same compound?
A: Its viability, T/C is 43.5%.

Q: And the viability, T/C [14]?
A: Its viability, T/C is 48.6%.

Q: And the viability, T/C [15]?
A: Its viability, T/C is 40.1%.

Q: And the viability, T/C [16]?
A: Its viability, T/C is 29.4%.

Q: And the viability, T/C [31]?
A: The viability, T/C was 30.1%.

Q: What about the viability, T/C [32] of the same compound?
A: Its viability, T/C is 26%.

Q: What about the viability, T/C [17] of the same compound?
A: Its viability, T/C is 34.9%.

Q: What about the viability, T/C [18] of the same compound?
A: Its viability, T/C is 39.7%.

Q: And the viability, T/C [19]?
A: The viability, T/C was 29%.

Q: What about the viability, T/C [20] of the same compound?
A: Its viability, T/C is 28.4%.

Q: And the viability, T/C [33]?
A: Its viability, T/C is 28.7%.

Q: And the viability, T/C [34]?
A: Its viability, T/C is 31.9%.

Q: And the viability, T/C [21]?
A: Its viability, T/C is 40.2%.

Q: What about the viability, T/C [22] of the same compound?
A: Its viability, T/C is 46%.

Q: And the viability, T/C [23]?
A: Its viability, T/C is 35.9%.

Q: What about the viability, T/C [24] of the same compound?
A: The viability, T/C was 23.4%.

Q: And the viability, T/C [35]?
A: Its viability, T/C is 30.8%.

Q: And the viability, T/C [36]?
A: The viability, T/C was 23.2%.

Reference: PubChem BioAssay AID2060601 (Molecular Pharmacology Branch, DTP, NCI, 2025)
